Laboratory results from PubChem BioAssay AID624108 (Broad Institute, 2012).
pKd: −log10 of the molar value. Calls of active or inactive are those of the source. No rule for the calls is given here.

Biological target: Glycogen synthase kinase-3 beta (Homo sapiens) (UniProt P49841)
Assay: GSK3beta direct binders, dose response, biophysical, surface plasmon resonance, microfluidics, dry powder samples (AID 624108)
Conditions: recombinant GSK3beta, surface plasmon resonance binding

Chain of Glycogen synthase kinase-3 beta (Homo sapiens) (P49841 whole entry, looked up): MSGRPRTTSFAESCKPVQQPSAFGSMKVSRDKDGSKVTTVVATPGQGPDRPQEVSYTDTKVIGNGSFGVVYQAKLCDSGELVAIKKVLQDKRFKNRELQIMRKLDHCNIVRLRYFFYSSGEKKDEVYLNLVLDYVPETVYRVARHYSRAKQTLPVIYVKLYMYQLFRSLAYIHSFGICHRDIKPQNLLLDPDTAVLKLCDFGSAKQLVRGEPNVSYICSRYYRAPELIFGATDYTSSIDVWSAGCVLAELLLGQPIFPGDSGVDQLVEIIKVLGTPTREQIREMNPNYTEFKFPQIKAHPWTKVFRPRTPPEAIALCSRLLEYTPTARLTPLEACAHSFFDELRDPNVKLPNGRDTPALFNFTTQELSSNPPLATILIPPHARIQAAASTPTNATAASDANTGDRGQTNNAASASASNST

| SMILES | pKd | Kd |
| --- | --- | --- |
| CC1(C)CC(=O)C2=C(C1)Nc1n[nH]c(C(F)(F)F)c1C2c1cc(F)ccc1F (configuration not stated) | 6.37 |  |
| Cc1[nH]nc2c1C(c1cccc3nonc13)C1=C(CC(C)(C)CC1=O)N2 (configuration not stated) |  | > 5 µM (inactive) |
| CC1(C)CC(=O)C2=C(C1)Nc1n[nH]c(C(F)(F)F)c1C2c1cccc(F)c1C(F)(F)F (configuration not stated) | 6.09 |  |
| Cc1[nH]nc2nc3c(c(-c4ccccc4)c12)C(=O)CC(C)(C)C3 | 7.89 |  |
| Cc1[nH]nc2c1C(c1ccc(F)cc1)C1=C(CC(C)(C)CC1=O)N2 (configuration not stated) |  | inactive |
| CC1(C)CC(=O)C2=C(C1)Nc1n[nH]c(C(F)(F)F)c1C2c1ccccc1 (configuration not stated) | 6.95 |  |
| CC1(C)CC(=O)/C(=C\c2ccccc2C(F)(F)F)C(=Nc2cc(C(F)(F)F)[nH]n2)C1 |  | > 5 µM (inactive) |
| CCc1[nH]nc2c1C(c1ccccc1OC)C1=C(CC(C)(C)CC1=O)N2 (configuration not stated) |  | > 5 µM (inactive) |
| Cc1[nH]nc2nc3c(c(-c4cccs4)c12)C(=O)CC(C)(C)C3 | 7.62 |  |
| Cc1[nH]nc2c1C(c1ccccn1)C1=C(CC(C)(C)CC1=O)N2 (configuration not stated) | 6.41 |  |
| CC1(C)CC(=O)C2=C(C1)Nc1n[nH]c(C(F)(F)F)c1C2c1cc(F)ccc1C(F)(F)F (configuration not stated) | 6.82 |  |
| Cc1[nH]nc2c1[C@H](c1ccccc1C(F)(F)F)C1=C(CC(C)(C)CC1=O)N2 | 7.82 |  |
| CC1(C)CC(=O)C2=C(C1)Nc1n[nH]c(C(F)(F)F)c1C2c1ccccc1F (configuration not stated) |  | > 5 µM (inactive) |
| Cc1[nH]nc2c1C(c1ccc(C(F)(F)F)cc1)C1=C(CC(C)(C)CC1=O)N2 (configuration not stated) | 6.43 |  |
| COc1ccccc1C1C2=C(CCC(C)(C)C2=O)Nc2n[nH]c(C)c21 (configuration not stated) | 6.52 |  |
| Cc1[nH]nc2c1C(c1ccc(Cl)cc1)C1=C(CC(C)(C)CC1=O)N2 (configuration not stated) |  | inactive |
| COc1ccccc1C1C2=C(CCCC2=O)Nc2n[nH]c(C)c21 (configuration not stated) |  | > 5 µM (inactive) |
| Cc1[nH]nc2c1C(c1ccn[nH]1)C1=C(CC(C)(C)CC1=O)N2 (configuration not stated) |  | > 5 µM (inactive) |
| CC1(C)CC(=O)C2=C(C1)Nc1n[nH]c(C(F)(F)F)c1C2c1cc(F)ccc1OC(F)(F)F (configuration not stated) | 6.20 |  |
| Cc1[nH]nc2c1C(c1cccc(C#N)c1)C1=C(CC(C)(C)CC1=O)N2 (configuration not stated) | 6.48 |  |
| COc1ccccc1C1C2=C(CC(C)(C)CC2=O)Nc2n[nH]c(C(F)(F)F)c21 (configuration not stated) | 6.99 |  |
| Cc1ccc(C2C3=C(CC(C)(C)CC3=O)Nc3n[nH]c(C)c32)cc1 (configuration not stated) |  | inactive |
| CC1(C)CC(=O)C2=C(C1)Nc1n[nH]c(C(F)(F)F)c1C2(C)c1ccccc1 (configuration not stated) |  | > 5 µM (inactive) |

| SMILES | pKd | Kd |
| --- | --- | --- |
| CC1(C)CC(=O)C2=C(C1)Nc1n[nH]c(C(F)(F)F)c1C2c1ccc(F)cc1C(F)(F)F (configuration not stated) | 6.69 |  |
| Cc1cccc(C2C3=C(CC(C)(C)CC3=O)Nc3n[nH]c(C)c32)c1 (configuration not stated) | 6.10 |  |
| Cc1[nH]nc2c1C(c1cccc(Cl)c1)C1=C(CC(C)(C)CC1=O)N2 (configuration not stated) | 6.44 |  |
| Cc1ccccc1C1C2=C(CC(C)(C)CC2=O)Nc2n[nH]c(C)c21 (configuration not stated) | 6.65 |  |
| Cc1[nH]nc2c1C(C1CCCCC1)C1=C(CC(C)(C)CC1=O)N2 (configuration not stated) |  | > 5 µM (inactive) |
| COc1ccccc1C1C(C(C)=O)=C(C)Nc2n[nH]c(C)c21 (configuration not stated) |  | > 5 µM (inactive) |
| Cc1[nH]nc2c1[C@@H](c1cccs1)C1=C(CC(C)(C)CC1=O)N2 |  | > 5 µM (inactive) |
| Cc1[nH]nc2c1[C@H](c1cccs1)C1=C(CC(C)(C)CC1=O)N2 | 6.38 |  |
| COc1ccccc1/C=C1\C(=O)CC(C)(C)CC1=Nc1cc(C(F)(F)F)[nH]n1 |  | > 5 µM (inactive) |
| Cc1[nH]nc2c1C(c1ccccc1Cl)C1=C(CC(C)(C)CC1=O)N2 (configuration not stated) | 6.05 |  |
| Cc1[nH]nc2c1C(C)(c1ccccc1)C1=C(CC(C)(C)CC1=O)N2 (configuration not stated) | 6.83 |  |
| Cc1[nH]nc2c1C(c1ccc(Br)cn1)C1=C(CC(C)(C)CC1=O)N2 (configuration not stated) |  | > 5 µM (inactive) |
| COc1ccccc1C1C2=C(CC(C)(C)CC2=O)Nc2n[nH]c(-c3ccccc3)c21 (configuration not stated) |  | inactive |
| CC1(C)CC(=O)C2=C(C1)Nc1n[nH]c(C(F)(F)F)c1C2c1ccccc1C(F)(F)F (configuration not stated) | 6.91 |  |
| COc1ccccc1C1C2=C(CC3(CCCCC3)CC2=O)Nc2n[nH]c(C)c21 (configuration not stated) |  | > 5 µM (inactive) |
| Cc1[nH]nc2c1C(c1ccc(F)cc1Cl)C1=C(CC(C)(C)CC1=O)N2 (configuration not stated) |  | > 5 µM (inactive) |
| COc1ccccc1[C@@H]1C2=C(CC(C)(C)CC2=O)Nc2n[nH]c(C(F)(F)F)c21 | 7.51 |  |
| Cc1[nH]nc2c1C(c1cccc(C(F)(F)F)c1)C1=C(CC(C)(C)CC1=O)N2 (configuration not stated) |  | inactive |
| COc1ccccc1C1C2=C(CC(C)(C)CC2=O)Nc2n[nH]c(C(C)(C)C)c21 (configuration not stated) | 6.23 |  |
| COc1ccccc1[C@H]1C2=C(CC(C)(C)CC2=O)Nc2n[nH]c(C(F)(F)F)c21 |  | inactive |
| COc1ccccc1C1C2=C(CC(C)(C)CC2=O)Nc2n[nH]c(C(C)C)c21 (configuration not stated) |  | inactive |
| Cc1[nH]nc2c1C(c1cccs1)C1C(=O)CC(C)(C)CC1=N2 (configuration not stated) | 6.38 |  |
| Cc1[nH]nc2c1C(c1cccnc1)C1=C(CC(C)(C)CC1=O)N2 (configuration not stated) | 6.57 |  |

| SMILES | pKd | Kd |
| --- | --- | --- |
| COc1ccccc1C1C2=C(CC(C)(C)CC2=O)Nc2ccccc21 (configuration not stated) |  | > 5 µM (inactive) |
| CC1(C)CC(=O)/C(=C\c2cccc(F)c2C(F)(F)F)C(=Nc2cc(C(F)(F)F)[nH]n2)C1 | 7.40 |  |
| Cc1[nH]nc2c1C(c1ccc(C#N)cc1)C1=C(CC(C)(C)CC1=O)N2 (configuration not stated) |  | inactive |
| Cc1[nH]nc2c1C(C1CC1)C1=C(CC(C)(C)CC1=O)N2 (configuration not stated) |  | > 5 µM (inactive) |
| CC1(C)CC(=O)C2=C(C1)Nc1n[nH]c(C(F)(F)F)c1C2c1c(F)cccc1F (configuration not stated) |  | > 5 µM (inactive) |
| Cc1[nH]nc2c1C(c1ccsc1)C1=C(CC(C)(C)CC1=O)N2 (configuration not stated) | 6.35 |  |
| COc1ccccc1C1C2=C(CC(C)(C)CC2=O)Nc2[nH]ncc21 (configuration not stated) | 6.76 |  |
| Cc1[nH]nc2nc3c(cc12)C(=O)CC(C)(C)C3 |  | > 5 µM (inactive) |
| COc1ccccc1-c1c2c(nc3n[nH]c(C)c13)CCC2=O |  | > 5 µM (inactive) |
| Cc1[nH]nc2c1[C@@H](c1ccccc1C(F)(F)F)C1=C(CC(C)(C)CC1=O)N2 |  | > 5 µM (inactive) |
| COc1ccccc1C1C2=C(CC(C)(C)CC2=O)Nc2onc(C)c21 (configuration not stated) |  | > 5 µM (inactive) |
| Cc1[nH]nc2c1C(c1cccc(F)c1)C1=C(CC(C)(C)CC1=O)N2 (configuration not stated) |  | inactive |
| Cc1[nH]nc2c1C(c1ccc3c(c1)OCO3)C1=C(CC(C)(C)CC1=O)N2 (configuration not stated) |  | inactive |
| Cc1[nH]nc2c1C(c1ccccc1C(F)(F)F)C1=C(CC(C)(C)CC1=O)N2 (configuration not stated) | 7.31 |  |
| COc1ccc(C2C3=C(CC(C)(C)CC3=O)Nc3n[nH]c(C)c32)cc1 (configuration not stated) |  | inactive |
| Cc1[nH]nc2c1C(C)C1=C(CC(C)(C)CC1=O)N2 (configuration not stated) |  | > 5 µM (inactive) |
| COc1ccccc1C1C2=C(CC(C)(C)CC2=O)Nc2n[nH]c(C)c21 (configuration not stated) | 7.22 |  |
| Cc1[nH]nc2c1C(c1ccc(Cl)s1)C1=C(CC(C)(C)CC1=O)N2 (configuration not stated) | 6.28 |  |
| Cc1[nH]nc2c1C(c1ccccc1Br)C1=C(CC(C)(C)CC1=O)N2 (configuration not stated) | 7.40 |  |
| COc1cccc(C2C3=C(CC(C)(C)CC3=O)Nc3n[nH]c(C)c32)c1 (configuration not stated) |  | > 5 µM (inactive) |
| Cc1[nH]nc2c1C(c1ccccc1C#N)C1=C(CC(C)(C)CC1=O)N2 (configuration not stated) |  | > 5 µM (inactive) |
